Source: US9108854B2, “Biocidal colloidal dispersions of silica particles with silver ions adsorbed thereon” (PREBONA AB, priority 2009, dated 2015)

Tested on: fungi
Test: Fungal growth on treated slices of French bread
Settings: slice brushed on all sides with 1000 ppm Ag; 3 days in warm and humid atmosphere, 20-35° C.
Method: Slices of French bread from a local baker were used as substrates for fungal growth. • 1. Bread slice was brushed on all sides with the sol containing 1000 ppm Ag • 2. […] Bread slice was untreated.
The bread slices on a dinner plate were put in a plastic bag, which in turn was placed in a glassed-in porch where the temperature varied between 20 and 35° C. over the day.

silver nitrate [AgNO3 solution]
resistance of bread slice to fungi attack: affords some protection
